Patent US9260517B2, “Human monoclonal antibodies to human nucleolin” (MUSC Foundation for Research Development, priority 2009, dated 2016)

What was measured:
[1] = test system: normal tonsil cells; test: Flow cytometry binding to normal tonsil cells; parameters: species or system human; settings: 5 μg/ml, 30 min on ice
Experimental: (§1) FIG. 12. Binding of HuMAbs to cell surface nucleolin and cytotoxicity to MV4-11 leukemia cells. (FIG. 12A) Anti-nucleolin HuMabs or Rituxan^R (5 μg/ml) were incubated with MV4-11 or normal tonsil cells for 30 min on ice, washed, then incubated with APC-labeled anti-human IgG (Miltenyi). Flow cytometry was performed on a FACSCaliber, and median fluorescence intensity (MFI) is shown.

[2] = molecular target: T1, cell surface nucleolin on MV4-11 AML cells (Homo sapiens, UniProt P19338); test: Flow cytometry (FACS) binding to MV4-11 cells; settings: 5 μg/ml, 30 min on ice
T1 construct: endogenous in cells; host or cells: MV4-11 cells
T1 sequence (P19338 whole entry): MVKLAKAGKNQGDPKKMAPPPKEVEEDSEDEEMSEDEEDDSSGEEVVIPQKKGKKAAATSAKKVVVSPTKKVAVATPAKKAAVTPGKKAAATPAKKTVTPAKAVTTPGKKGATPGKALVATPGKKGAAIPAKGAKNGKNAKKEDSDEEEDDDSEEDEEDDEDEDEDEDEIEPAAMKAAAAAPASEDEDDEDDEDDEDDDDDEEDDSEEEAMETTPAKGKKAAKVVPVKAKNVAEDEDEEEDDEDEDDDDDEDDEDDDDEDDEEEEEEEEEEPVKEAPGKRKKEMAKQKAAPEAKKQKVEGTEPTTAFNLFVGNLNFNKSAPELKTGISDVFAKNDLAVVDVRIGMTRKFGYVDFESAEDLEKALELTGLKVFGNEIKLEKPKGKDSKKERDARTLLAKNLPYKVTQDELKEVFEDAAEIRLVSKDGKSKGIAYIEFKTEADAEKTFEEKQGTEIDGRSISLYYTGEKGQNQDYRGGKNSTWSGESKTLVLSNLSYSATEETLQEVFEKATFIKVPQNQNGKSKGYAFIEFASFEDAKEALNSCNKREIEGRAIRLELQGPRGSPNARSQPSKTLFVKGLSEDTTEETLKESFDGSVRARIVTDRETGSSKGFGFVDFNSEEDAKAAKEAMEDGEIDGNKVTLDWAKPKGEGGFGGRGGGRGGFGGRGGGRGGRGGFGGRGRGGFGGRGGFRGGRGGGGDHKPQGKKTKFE
Experimental: as §1
analysis was performed using a Becton Dickinson FACSCalibur instrument at the MUSC Flow Cytometry Facility, according to established methods. Infection efficiency of B cells infected with […] was assessed by measuring fluorescence of Green Fluorescent Protein 24 h post-infection. Antibodies used to characterize human B cells were obtained from BD Biosciences and are specific for human CD20, CD19, CD23, CD27, CD30, CD38, IgD, IgM, and IgG.

binding to MV4-11 cells by flow cytometry [2]: not to MV4-11 cells
Substance: rituximab
binding to normal tonsil cells by flow cytometry [1]: bound to normal tonsil cells
